Measured values: patent publication US20200222370A1, “PHARMACEUTICAL COMPOSITION” (KOWA COMPANY, LTD., priority 2017, published 2020)

Tests used:
[1] = pH value of pemafibrate itself dissolved or dispersed in purified water; assay type: physicochemical; conditions: pemafibrate 5 μg/mL as free form in purified water
Method: Herein, the “a pH value of a solution produced by dissolving or dispersing a pharmaceutical composition in water” means a value obtained by measuring at 25° C. a pH of a solution produced by dissolving or dispersing a pharmaceutical composition containing pemafibrate, a salt thereof or a solvate thereof in water so that the concentration of pemafibrate in terms of a free form is 5 μg/mL. Incidentally, purified water is used as water. First a measurement of a pH value of pemafibrate itself was performed. To be more specific, pemafibrate was dissolved or dispersed in purified water so that the concentration of pemafibrate as the free form was 5 μg/mL. Then, a pH value of the obtained solution at 25° C. was measured.

[2] = Stability of pemafibrate under different pH environments (buffer solutions, 80° C., 96 hours, HPLC); assay type: physicochemical; conditions: 5 μg/mL, 96 hours later
Method: In Test Examples below, measurement was performed through HPLC using an ODS column as a column and an ultraviolet spectrophotometer as a detector. Additionally, the following studies were conducted in order to evaluate the stability of pemafibrate under different pH environments. Namely, buffer solutions were prepared in accordance with the descriptions about buffer solutions of U.S.Pharmacopeia (2013 Edition) and Japanese Pharmacopeia (17th Edition), so as to have the following pH values at 25° C.: pH 2.0 (hydrochloric acid buffer solution including potassium chloride); pH 3.0 and 4.0 (Acid phthalate buffer solution including potassium biphthalate); pH 6.0 and 7.0 (phosphate buffer solution); pH 8.0, 9.0 and 10.0 (Alkaline borate buffer solution including boric acid, potassium chloride and sodium hydroxide); pH 11.0 (Ammonium buffer solution including ammonia and ammonium chloride); and pH 12.0 (phosphate buffer solution). In each of the buffer solutions, pemafibrate was dissolved or dispersed so that its amount as the free form was 5 μg/mL, thereby producing liquid samples having different pH conditions. The liquid samples were stored at 80° C. for 96 hours. The amounts of pemafibrate-derived decomposition products (related substances) in the liquid samples after storage for 96 hours were evaluated through the following method. Specifically, acetonitrile was added to each of the liquid samples, and then they were measured by using HPLC. The sum of peak areas derived from related substances on the chromatogram was calculated in terms of the ratio (%) to the sum of peak areas derived from pemafibrate and related substances, and the ratio was defined as the “Total amount (%) of related substances”.

pH value (25° C.) [1]: ~5.9 | Total amount (%) of related substances ([2]; pH 2.0 buffer): 27.1% | Total amount (%) of related substances ([2]; pH 3.0 buffer): 4.1% | Total amount (%) of related substances ([2]; pH 4.0 buffer): 1.1% | Total amount (%) of related substances ([2]; pH 6.0 buffer): 1.3% | Total amount (%) of related substances ([2]; pH 7.0 buffer): 0.9% | Total amount (%) of related substances ([2]; pH 8.0 buffer): 0.4% | Total amount (%) of related substances ([2]; pH 9.0 buffer): <0.1% | Total amount (%) of related substances ([2]; pH 10.0 buffer): 0.1% | Total amount (%) of related substances ([2]; pH 11.0 buffer): 0.1% | Total amount (%) of related substances ([2]; pH 12.0 buffer): <0.1%
Structure (SMILES): CC[C@@H](Oc1cccc(CN(CCCOc2ccc(OC)cc2)c2nc3ccccc3o2)c1)C(=O)O [pemafibrate, (2R)-2-[3-([1,3-Benzoxazol-2-yl[3-(4-methoxyphenoxy)propyl]amino]methyl)phenoxy]butanoic acid]
